From ChEMBL document CHEMBL1697692, “Developing structure-activity relationships for the prediction of hepatotoxicity” (Chem Res Toxicol, 2010)

System: Hepatotoxicity
Assay: Literature-mined public compounds from Greene et al multi-species hepatotoxicity modelling dataset

Row | Compound | Hepatotoxicity
1 | CN1C[C@H](C(=O)N[C@]2(C)O[C@@]3(O)[C@@H]4CCCN4C(=O)[C@H](Cc4ccccc4)N3C2=O)C=C2c3cccc4[nH]cc(c34)C[C@H]21.CN1C[C@H](C(=O)N[C@]2(C)O[C@@]3(O)[C@@H]4CCCN4C(=O)[C@H](Cc4ccccc4)N3C2=O)C=C2c3cccc4[nH]cc(c34)C[C@H]21.O=C(O)C(O)C(O)C(=O)O [ERGOTAMINE TARTRATE] | NE: No evidence of hepatotoxicity in any species
2 | NC[C@H]1O[C@H](O[C@H]2[C@H](O)[C@@H](O[C@H]3O[C@H](CO)[C@@H](O)[C@H](N)[C@H]3O)[C@H](N)C[C@@H]2N)[C@H](N)C[C@@H]1O [TOBRAMYCIN] | HH: Evidence of human hepatotoxicity
3 | CC(C(=O)O)c1ccc(N2CC=CC2)c(Cl)c1 (stereo unspecified) [PIRPROFEN] | HH: Evidence of human hepatotoxicity
4 | Cc1ccc(C(=O)c2ccc(CC(=O)O)n2C)cc1 [TOLMETIN] | HH: Evidence of human hepatotoxicity
5 | CC(O)(CS(=O)(=O)c1ccc(F)cc1)C(=O)Nc1ccc(C#N)c(C(F)(F)F)c1 (stereo unspecified) [BICALUTAMIDE] | HH: Evidence of human hepatotoxicity
6 | CCCC(C)(F)F [2,2-DIFLUOROPENTANE] | AH: Evidence for animal hepatotoxicity but not tested in humans
7 | CN(C)CCC=C1c2ccccc2CCc2ccccc21.Cl [AMITRIPTYLINE HYDROCHLORIDE] | WE: Weak evidence (<10 case reports) of human hepatotoxicity
8 | O=C(OCC(O)CO)c1ccccc1Nc1ccnc2cc(Cl)ccc12 (stereo unspecified) [GLAFENINE] | HH: Evidence of human hepatotoxicity
9 | NNC(=O)c1ccncc1 [ISONIAZID] | HH: Evidence of human hepatotoxicity
10 | COc1cc2c(c(OC)c1OC)-c1ccc(OC)c(=O)cc1[C@@H](NC(C)=O)CC2 [COLCHICINE] | WE: Weak evidence (<10 case reports) of human hepatotoxicity
11 | C[C@H](CCC(=O)O)[C@H]1CC[C@H]2[C@@H]3[C@@H](O)C[C@@H]4C[C@H](O)CC[C@]4(C)[C@H]3CC[C@]12C (stereo in doubt; form 1) [URSODIOL] | HH: Evidence of human hepatotoxicity
12 | C[C@H]1COc2c(N3CCN(C)CC3)c(F)cc3c(=O)c(C(=O)O)cn1c23.C[C@H]1COc2c(N3CCN(C)CC3)c(F)cc3c(=O)c(C(=O)O)cn1c23.O [LEVOFLOXACIN] | WE: Weak evidence (<10 case reports) of human hepatotoxicity
13 | CC(=O)OCC[N+](C)(C)C.[Cl-] [ACETYLCHOLINE CHLORIDE] | NE: No evidence of hepatotoxicity in any species
14 | S=C=Nc1ccccc1 [PHENYLISOTHIOCYANATE] | AH: Evidence for animal hepatotoxicity but not tested in humans
15 | Sc1ncnc2nc[nH]c12 [MERCAPTOPURINE ANHYDROUS] | HH: Evidence of human hepatotoxicity
16 | CN(C)[C@@H]1C(O)=C(C(N)=O)C(=O)[C@@]2(O)C(O)=C3C(=O)c4c(O)cccc4[C@@](C)(O)[C@H]3C[C@@H]12 [TETRACYCLINE] | HH: Evidence of human hepatotoxicity
17 | Cl.O=C(O)CCCCCCNC1c2ccccc2CCc2ccccc21 [AMINEPTINE HYDROCHLORIDE] | HH: Evidence of human hepatotoxicity
18 | CC(C)NCC(O)c1ccc(O)c(O)c1.Cl (stereo unspecified) [ISOPROTERENOL HYDROCHLORIDE] | NE: No evidence of hepatotoxicity in any species
19 | CC(=O)OCC1=C(C(=O)[O-])N2C(=O)[C@@H](NC(=O)Cc3cccs3)[C@H]2SC1.[Na+] [CEPHALOTHIN SODIUM] | HH: Evidence of human hepatotoxicity
20 | Clc1ccc2c(c1)C(N1CCNCC1)=Nc1ccccc1O2 [AMOXAPINE] | WE: Weak evidence (<10 case reports) of human hepatotoxicity
21 | CC(C)(CO)[C@@H](O)C(=O)NCCC(=O)[O-].CC(C)(CO)[C@@H](O)C(=O)NCCC(=O)[O-].[Ca+2] [CALCIUM PANTOTHENATE] | NE: No evidence of hepatotoxicity in any species

Row | Compound | Hepatotoxicity
22 | Cl.NCCNCCNCCN | HH: Evidence of human hepatotoxicity
23 | CC(=O)Nc1ccc2c(c1)Cc1ccccc1-2 [2-ACETYLAMINOFLUORENE] | HH: Evidence of human hepatotoxicity
24 | FERROUS SULFATE | NE: No evidence of hepatotoxicity in any species
25 | C[C@H](CCC(=O)O)[C@H]1CC[C@H]2[C@@H]3[C@H](O)C[C@@H]4C[C@H](O)CC[C@]4(C)[C@H]3CC[C@]12C [CHENODIOL] | HH: Evidence of human hepatotoxicity
26 | Nc1c(CC(=O)O)cccc1C(=O)c1ccc(Br)cc1 [BROMFENAC] | HH: Evidence of human hepatotoxicity
27 | CC(C)N(CCC(C(N)=O)(c1ccccc1)c1ccccn1)C(C)C.O=P(O)(O)O (stereo unspecified) [DISOPYRAMIDE PHOSPHATE] | HH: Evidence of human hepatotoxicity
28 | CN1CCC[C@@H]1CCO[C@](C)(c1ccccc1)c1ccc(Cl)cc1.O=C(O)/C=C/C(=O)O [CLEMASTINE FUMARATE] | NE: No evidence of hepatotoxicity in any species
29 | CC(C)(C)NC(=O)[C@@H]1C[C@@H]2CCCC[C@@H]2CN1C[C@@H](O)[C@H](Cc1ccccc1)NC(=O)[C@H](CC(N)=O)NC(=O)c1ccc2ccccc2n1.CS(=O)(=O)O [SAQUINAVIR MESYLATE] | HH: Evidence of human hepatotoxicity
30 | Cc1ncc([N+](=O)[O-])n1CCO [METRONIDAZOLE] | HH: Evidence of human hepatotoxicity
31 | CN[C@H]1CC[C@@H](c2ccc(Cl)c(Cl)c2)c2ccccc21 [SERTRALINE] | WE: Weak evidence (<10 case reports) of human hepatotoxicity
32 | Nc1ncnc2c1ncn2[C@@H]1O[C@H](CO)[C@@H](O)[C@H]1O [ADENOSINE] | NE: No evidence of hepatotoxicity in any species
33 | CN(C)C(=O)Oc1cc(OC(=O)N(C)C)cc(C(O)CNC(C)(C)C)c1 (stereo unspecified) [BAMBUTEROL] | NE: No evidence of hepatotoxicity in any species
34 | CC1=C(/C=C/C(C)=C/C=C/C(C)=C\C(=O)O)C(C)(C)CCC1 [ISOTRETINOIN] | HH: Evidence of human hepatotoxicity
35 | CC[C@]1(O)C[C@H]2CN(CCc3c([nH]c4ccccc34)[C@@](C(=O)OC)(c3cc4c(cc3OC)N(C=O)[C@H]3[C@@](O)(C(=O)OC)[C@H](OC(C)=O)[C@]5(CC)C=CCN6CC[C@]43[C@@H]65)C2)C1.O=S(=O)(O)O [VINCRISTINE SULFATE] | HH: Evidence of human hepatotoxicity
36 | C=CCO [ALLYL ALCOHOL] | HH: Evidence of human hepatotoxicity
37 | CCCCCOC(=O)c1ccccc1C(=O)OCCCCC | AH: Evidence for animal hepatotoxicity but not tested in humans
38 | Cc1ccc(C)c(OCCCC(C)(C)C(=O)O)c1 [GEMFIBROZIL] | HH: Evidence of human hepatotoxicity
39 | CCc1c(C)[nH]c2c1C(=O)C(CN1CCOCC1)CC2.Cl (stereo unspecified) [MOLINDONE HYDROCHLORIDE] | HH: Evidence of human hepatotoxicity
40 | N[C@@H](C(=O)N[C@@H]1C(=O)N2C(C(=O)O)=C(Cl)CC[C@H]12)c1ccccc1 [LORACARBEF ANHYDROUS] | NE: No evidence of hepatotoxicity in any species
41 | C[C@@H]1[C@H](O)[C@@H](C)/C=C/C=C/C=C/C=C/C=C/C=C/C=C/[C@H](O[C@@H]2O[C@H](C)[C@@H](O)[C@H](N)[C@@H]2O)C[C@@H]2O[C@](O)(C[C@@H](O)C[C@@H](O)[C@H](O)CC[C@@H](O)C[C@@H](O)CC(=O)O[C@H]1C)C[C@H](O)[C@H]2C(=O)O [AMPHOTERICIN B] | WE: Weak evidence (<10 case reports) of human hepatotoxicity
